{"source": "patent US11014966B2", "about": "“Compounds and therapeutics uses thereof” (priority 2016, dated 2021)", "key": {"[1]": {"system": "E. coli K12", "assay_type": "cell-based", "conditions": "20 μM compound, human IgM M86 antibody 25 μg/mL, FC500, Method 1", "method": "Antibody Recruitment Assay by Flow Cytometry Using Anti-Alpha-Galactosyl IgM Antibody\nA secondary FITC labelled anti-human IgM antibody was used to detect binding of anti-alpha-galactosyl to the compound.\n(§1) The assays were carried out in polystyrene 96-well U bottom plates (Costar). The 96-well plates were pre-blocked with casein blocking buffer (Thermo Fisher 37528) and then washed three times with (HBSS+/+) (Life Technologies 14025-050) prior to assay. E. coli K12 (Public Health England, NCTC 10538) were grown in LB broth (Fisher BP1426-500) to late exponential phase. Subsequently, the bacteria were centrifuged at 10 000 rpm for 5 minutes and resuspended in HBSS+/+ at a bacterial density of 2*10^9 CFU/mL. […] After a final wash of 3×200 μL HBSS+/+ the bacteria were resuspended in 200 μL HBSS+/+ and evaluated on a FC500 (Beckman Coulter). Bacteria were live gated in the FL-4 channel and median fluorescent shift was recorded in the FL-1 channel. Data from all samples were analysed in the Kaluza software package (Beckman Coulter). […]\n(§2) The fold shift over background was calculated by dividing the Median Fluorescent Intensity obtained in the presence 20 μM Examples by the Median Fluorescence Intensity obtained in the absence of Examples. The shift in fluorescence intensity (FITC) occurs due to the binding event at each end of the molecule."}, "[2]": {"system": "E. coli K12", "assay_type": "cell-based", "conditions": "20 μM compound, anti-alpha galactosyl IgG purified from human IVIG, 42 μg/mL", "method": "Antibody Recruitment Assay by Flow Cytometry Using Anti Alpha-Galactosyl IgG Antibody\nA secondary FITC labelled anti-human IgG antibody was used to detect binding of alpha-galactosyl to the compound.\nas §1, with “and resuspended HBSS+/+ at” for “and resuspended in HBSS+/+ at”\nas §2"}}}
{"smiles": "CCCCCCCCC(=O)N[C@@H](CCNC(=O)c1cc(OCC(=O)NCCCO[C@@H]2OC(CO)[C@@H](O[C@@H]3OC(CO)[C@H](O)C(O[C@H]4OC(CO)[C@H](O)C(O)C4O)C3O)C(O)C2NC(C)=O)cc(-c2cc(OCC(=O)NCCCO[C@@H]3OC(CO)[C@@H](O[C@@H]4OC(CO)[C@H](O)C(O[C@H]5OC(CO)[C@H](O)C(O)C5O)C4O)C(O)C3NC(C)=O)cc(OCC(=O)NCCCO[C@@H]3OC(CO)[C@@H](O[C@@H]4OC(CO)[C@H](O)C(O[C@H]5OC(CO)[C@H](O)C(O)C5O)C4O)C(O)C3NC(C)=O)c2)c1)C(=O)N[C@H](C(=O)N[C@@H](CCN)C(=O)N[C@H]1CCNC(=O)[C@H]([C@@H](C)O)NC(=O)[C@H](CCN)NC(=O)[C@H](CCN)NC(=O)[C@H](CC(C)C)NC(=O)[C@@H](Cc2ccccc2)NC(=O)[C@H](CCN)NC1=O)[C@@H](C)O", "note": "(some centres unmarked) [Example 10]", "values": [{"measurement": "Anti-alpha galactosyl IgM recruitment at 20 μM (Median Fold shift over vehicle)", "setting": "[1]", "value": 2, "unit": "fold"}, {"measurement": "Anti-alphagalactosyl IgG recruitment at 20 μM (Median Fold shift over vehicle)", "setting": "[2]", "value": 1, "unit": "fold"}]}
